In PubChem BioAssay AID1845196 (Molecular Pharmacology Branch, DTP, NCI, 2023):

Test system: 292921-168-R tumor spheroid viability
Assay: Anticancer human tumor 292921-168-R patient-derived pancreatic carcinoma cell line growth inhibition
Conditions: spheroids with HUVEC and MSC; for IC50: curve of first compound; for viability, T/C: stronger effect = lower value
Method in brief: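 Complex spheroids of malignant cells with endothelial cells and mesenchymal stem cells; agents alone or combined, from near clinical Cmax (or 10 microM if unknown) down in half-log steps, 0.25% DMSO final.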
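Further: spheroids exposed to compounds for 7 days.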

CC(C)n1c(=O)n(C)c2cnc3cc(F)c(-c4ccc(OCCCN5CCCCC5)nc4)cc3c21 + Cn1nnc2c(C(N)=O)ncn2c1=O
IC50 (second compound 1 µM): 4.66 µM | IC50 (second compound 3.16 µM): 5.43 µM | IC50 (second compound 10 µM): 5.38 µM | IC50 (second compound 31.6 µM): 4.64 µM | IC50 (second compound 100 µM): 4.29 µM | viability, T/C (second compound 1 µM, first compound 0.0316 µM): 96.5% | viability, T/C (second compound 1 µM, first compound 0.1 µM): 94.2% | viability, T/C (second compound 1 µM, first compound 0.316 µM): 89.6% | viability, T/C (second compound 1 µM, first compound 1 µM): 79.6% | viability, T/C (second compound 1 µM, first compound 3.16 µM): 63.3% | viability, T/C (second compound 1 µM, first compound 10 µM): 26% | viability, T/C (second compound 3.16 µM, first compound 0.0316 µM): 99.2% | viability, T/C (second compound 3.16 µM, first compound 0.1 µM): 94.8% | viability, T/C (second compound 3.16 µM, first compound 0.316 µM): 85.6% | viability, T/C (second compound 3.16 µM, first compound 1 µM): 86.8% | viability, T/C (second compound 3.16 µM, first compound 3.16 µM): 73.8% | viability, T/C (second compound 3.16 µM, first compound 10 µM): 25.1% | viability, T/C (second compound 10 µM, first compound 0.0316 µM): 90.4% | viability, T/C (second compound 10 µM, first compound 0.1 µM): 96.2% | viability, T/C (second compound 10 µM, first compound 0.316 µM): 89.5% | viability, T/C (second compound 10 µM, first compound 1 µM): 84.2% | viability, T/C (second compound 10 µM, first compound 3.16 µM): 69.8% | viability, T/C (second compound 10 µM, first compound 10 µM): 27.4% | viability, T/C (second compound 31.6 µM, first compound 0.0316 µM): 89.9% | viability, T/C (second compound 31.6 µM, first compound 0.1 µM): 91.2% | viability, T/C (second compound 31.6 µM, first compound 0.316 µM): 83.6% | viability, T/C (second compound 31.6 µM, first compound 1 µM): 77.9% | viability, T/C (second compound 31.6 µM, first compound 3.16 µM): 62.8% | viability, T/C (second compound 31.6 µM, first compound 10 µM): 25.9% | viability, T/C (second compound 100 µM, first compound 0.0316 µM): 72.2% | viability, T/C (second compound 100 µM, first compound 0.1 µM): 74.1% | viability, T/C (second compound 100 µM, first compound 0.316 µM): 79.6% | viability, T/C (second compound 100 µM, first compound 1 µM): 77.2% | viability, T/C (second compound 100 µM, first compound 3.16 µM): 57.9% | viability, T/C (second compound 100 µM, first compound 10 µM): 28.1%

COc1ccc([C@@H](O)c2cc(-c3ncnc4cc(N5CCOCC5)ccc34)c(F)cc2Cl)nn1 + COc1cc2c(cc1O)CCNC21CSC2c3c(OC(C)=O)c(C)c4c(c3C(COC1=O)N1C(O)C3Cc5cc(C)c(OC)c(O)c5C(C21)N3C)OCO4
IC50 (second compound 30 pM): 1.44 µM | IC50 (second compound 94.9 pM): 0.871 µM | IC50 (second compound 0.0003 µM): < 0.0316 µM | IC50 (second compound 0.000949 µM): < 0.0316 µM | IC50 (second compound 0.003 µM): < 0.0316 µM | viability, T/C (second compound 30 pM, first compound 0.0316 µM): 100% | viability, T/C (second compound 30 pM, first compound 0.1 µM): 107% | viability, T/C (second compound 30 pM, first compound 0.316 µM): 95.6% | viability, T/C (second compound 30 pM, first compound 1 µM): 58.6% | viability, T/C (second compound 30 pM, first compound 3.16 µM): 31.1% | viability, T/C (second compound 30 pM, first compound 10 µM): 19.5% | viability, T/C (second compound 94.9 pM, first compound 0.0316 µM): 105% | viability, T/C (second compound 94.9 pM, first compound 0.1 µM): 99.2% | viability, T/C (second compound 94.9 pM, first compound 0.316 µM): 78.7% | viability, T/C (second compound 94.9 pM, first compound 1 µM): 45.4% | viability, T/C (second compound 94.9 pM, first compound 3.16 µM): 27.4% | viability, T/C (second compound 94.9 pM, first compound 10 µM): 19% | viability, T/C (second compound 0.0003 µM, first compound 0.0316 µM): 40.7% | viability, T/C (second compound 0.0003 µM, first compound 0.1 µM): 43.3% | viability, T/C (second compound 0.0003 µM, first compound 0.316 µM): 26.3% | viability, T/C (second compound 0.0003 µM, first compound 1 µM): 13.7% | viability, T/C (second compound 0.0003 µM, first compound 3.16 µM): 9.98% | viability, T/C (second compound 0.0003 µM, first compound 10 µM): 7.7% | viability, T/C (second compound 0.000949 µM, first compound 0.0316 µM): 2.51% | viability, T/C (second compound 0.000949 µM, first compound 0.1 µM): 2.48% | viability, T/C (second compound 0.000949 µM, first compound 0.316 µM): 0.8% | viability, T/C (second compound 0.000949 µM, first compound 1 µM): 0.09% | viability, T/C (second compound 0.000949 µM, first compound 3.16 µM): 0.1% | viability, T/C (second compound 0.000949 µM, first compound 10 µM): 0.26% | viability, T/C (second compound 0.003 µM, first compound 0.0316 µM): 0.14% | viability, T/C (second compound 0.003 µM, first compound 0.1 µM): 0.23% | viability, T/C (second compound 0.003 µM, first compound 0.316 µM): 0.49% | viability, T/C (second compound 0.003 µM, first compound 1 µM): 1.37% | viability, T/C (second compound 0.003 µM, first compound 3.16 µM): 1.46% | viability, T/C (second compound 0.003 µM, first compound 10 µM): 1.42%
